Data: paper PMC9968088, “Identification and Characterization of Three New Antimicrobial Peptides from the Marine Mollusk Nerita versicolor (Gmelin, 1791)” (International Journal of Molecular Sciences, 2023)
Ends that are not written are not given here.

Tests used:
Settings in all cases: 24 h
[1] = test system: C. auris; assay type: cell-based, Candida auris
Description: (§1) The antifungal activity was determined according to the “Clinical and Laboratory Standards Institute” guidelines M27-A3 broth microdilution assay with modifications (turbidimetric detection) [29, 31]. Based on the cell density measurements, the minimal inhibitory concentration (MIC) was derived from a Lambert–Pearson plot [32].

[2] = test system: C. parapsilosis biofilm; assay type: cell-based, Candida parapsilosis
Description: (§2) Biofilms were basically formed and analyzed as described previously [31, 32, 33]. In brief, 2.5 × 10^3 yeast cells were seeded in 200 µL RPMI-1640 medium supplemented with L-glutamine in flat-bottomed, 96-well polystyrene microtiter plates (Sarstedt AG & Co. KG, Nümbrecht, Germany) and incubated at 37 °C without agitation for 24 h. The effect of the peptides on the biofilm formation was tested at different concentrations. […] Planktonic cells were removed with the supernatant, and the mature biofilms were washed twice with 200 µL water. Subsequently, the biofilms were stained with 200 µL of a 0.1% (w/v) crystal violet solution for 15 min. The supernatant was removed, and the biofilms were washed twice with 200 µL water to eliminate excess crystal violet. The stained biofilms were air dried for 24 h at 25 °C and finally destained using 200 µL of 30% acetic acid (15 min, 25 °C). The supernatant was transferred to a fresh 96-well plate, and the absorbance at 560 nm was measured using a Tecan infinite M200 microplate reader to quantify the biofilm biomass. The curve was fitted with a nonlinear regression with the dose-response nonlinear Hill equation.

[3] = test system: C. auris biofilm; assay type: cell-based, Candida auris
Description: as §2

[4] = test system: C. albicans; assay type: cell-based, Candida albicans
Description: as §1

[5] = test system: C. parapsilosis; assay type: cell-based, Candida parapsilosis
Description: as §1

[6] = test system: Pseudomonas aeruginosa; assay type: cell-based
Description: The OD 600 nm of an overnight culture of Pseudomonas aeruginosa was determined and adjusted to 0.1 in Mueller–Hinton broth and, afterwards, diluted 1:4. […] After a 24 h incubation at 37 °C and a 5% CO2 atmosphere, OD 600 nm was determined using a Tecan microplate reader M infinite 200. All tests were performed in triplicate.

[7] = test system: C. albicans biofilm; assay type: cell-based, Candida albicans
Description: as §2

Substance: KKKPTKK [Nv-p3]
- Antifungal Activity MIC [1]: ˃100 µg/mL
- Antibiofilm Activity IC50 [2]: 84.4 µg/mL
- Antibiofilm Activity IC50 [3]: 57.5 µg/mL
- Antifungal Activity MIC [4]: ˃100 µg/mL
- Antifungal Activity MIC [5]: ˃100 µg/mL
- MIC [6]: >100 µg/mL
- Antibiofilm Activity IC50 [7]: 57.5 µg/mL
